Results on nine compounds are retold here after PubChem BioAssay (NCI).

Test systems include CCRF-CEM leukemia; OVCAR-3 ovarian; HCT-116 colon; SK-MEL-5 melanoma; PC-3 prostate; M14 melanoma; SF-295 CNS; NCI-H460 lung; UACC-257 melanoma; U251 CNS.
Holding throughout (assay): inhibition of tumour cell growth, NCI panel, 48 h

Where “and” joins values, the source holds several entries; their conditions need not be identical. Equal values may be shown once.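 These data come from cells grown in 96-well plates and exposed to compound for 48 hours at five concentrations. GI50: concentration for 50% inhibition of growth. TGI: total growth inhibition.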

Consider `O=[N+]([O-])c1cccc(/C=C/c2ccccn2)c1`, for which the GI50 was 7.91 µM in the assay on CCRF-CEM leukemia; 12.4 µM with OVCAR-3 ovarian; 7.02 µM in the assay with HCT-116 colon; 28.7 µM in the assay on SK-MEL-5 melanoma; 29.1 µM with PC-3 prostate; 52.1 µM in the assay on M14 melanoma. Moreover, the GI50 in the assay on SF-295 CNS was 35.6 µM; in the assay on NCI-H460 lung, 34.5 µM; in the assay with UACC-257 melanoma, over 100 µM; with U251 CNS, 6.68 µM. In addition, the TGI in the assay on CCRF-CEM leukemia is 43 µM; in the assay with OVCAR-3 ovarian it was over 100 µM; in the assay with HCT-116 colon it was over 100 µM; with SK-MEL-5 melanoma, over 100 µM; in the assay on PC-3 prostate, over 100 µM; in the assay with M14 melanoma, over 100 µM. For the same compound, the TGI in the assay with SF-295 CNS, in the assay with NCI-H460 lung, in the assay on UACC-257 melanoma and in the assay on U251 CNS was over 100 µM throughout.

For the compound `O=C(C[C@@]1(O)C(=O)Nc2c(Cl)ccc(Cl)c21)c1ccc(C2CC2)cc1`, the GI50 in the assay with CCRF-CEM leukemia is 0.341 µM; in the assay on OVCAR-3 ovarian it was 0.264 µM; with HCT-116 colon it was 0.437 µM; in the assay on SK-MEL-5 melanoma, 0.355 µM; in the assay with PC-3 prostate, 0.434 µM; with M14 melanoma, 0.184 µM. Further, the GI50 in the assay with SF-295 CNS is 0.344 µM; in the assay on NCI-H460 lung, 0.359 µM; in the assay on UACC-257 melanoma, 12.4 µM; with U251 CNS, 0.436 µM. For the same compound, the TGI with CCRF-CEM leukemia is over 100 µM; in the assay with OVCAR-3 ovarian it was 3.71 µM; in the assay on HCT-116 colon it was 11.9 µM; in the assay on SK-MEL-5 melanoma it was 11.6 µM; in the assay on PC-3 prostate, 20 µM; in the assay on M14 melanoma, 13.8 µM. In addition, the TGI with SF-295 CNS came out at 13.3 µM; in the assay with NCI-H460 lung, 11.4 µM; with UACC-257 melanoma, 41.1 µM; with U251 CNS it was 16.2 µM.

On to `COc1ccc2[nH]c(-c3ccccc3)c(C=C(C#N)C#N)c2c1`, for which the GI50 in the assay on CCRF-CEM leukemia is 3.42 µM; in the assay with OVCAR-3 ovarian it was 3.08 µM; in the assay on HCT-116 colon, 4.37 µM; with SK-MEL-5 melanoma, 2.87 µM; with PC-3 prostate it was 5.37 µM; with M14 melanoma, 2.29 µM. For the same compound, the GI50 with SF-295 CNS was 4.15 µM; in the assay with NCI-H460 lung, 3.56 µM; with UACC-257 melanoma, 30 µM; in the assay with U251 CNS, 3.53 µM. Besides, the TGI was over 100 µM with CCRF-CEM leukemia; 16 µM in the assay with OVCAR-3 ovarian; over 100 µM in the assay with HCT-116 colon; over 100 µM in the assay with SK-MEL-5 melanoma; over 100 µM in the assay on PC-3 prostate; 44.5 µM in the assay with M14 melanoma. For the same compound, the TGI is over 100 µM with SF-295 CNS, over 100 µM in the assay on NCI-H460 lung, over 100 µM in the assay on UACC-257 melanoma and 25.5 µM with U251 CNS.

As for `COc1ccc2[nH]c3c(C)c4cc[n+](C)cc4c(C)c3c2c1`, the GI50 in the assay on CCRF-CEM leukemia was 0.706 µM and 1.92 µM; in the assay on OVCAR-3 ovarian it was 0.246 µM; in the assay on HCT-116 colon, 0.578 µM and 1.14 µM; with SK-MEL-5 melanoma, 2.07 µM; in the assay on M14 melanoma, 16.1 µM and 12.9 µM and 2.33 µM; in the assay with SF-295 CNS, 0.107 µM. Further, the GI50 in the assay on NCI-H460 lung is 0.402 µM and 0.998 µM; in the assay with UACC-257 melanoma it was 6.27 µM and 5.41 µM; with U251 CNS, 0.0689 µM and 0.0524 µM. Moreover, the TGI in the assay with SK-MEL-5 melanoma is 7.15 µM [middle of 4 runs]; in the assay on PC-3 prostate it was 99.3 µM and > 250 µM; with M14 melanoma, 85.3 µM and 29.8 µM; in the assay with UACC-257 melanoma, 54.5 µM [middle of 4 runs].

On to `COc1ccc2c(c1)C(=O)c1c-2c(OCCN(C)C)nc2cc(OC)ccc12`, for which the GI50 in the assay on CCRF-CEM leukemia is 0.536 µM; in the assay with OVCAR-3 ovarian, 1.59 µM; in the assay on HCT-116 colon, 0.344 µM; with SK-MEL-5 melanoma it was 1.73 µM; in the assay on PC-3 prostate it was 1.24 µM; in the assay with M14 melanoma, 1.51 µM. The GI50 is 2.22 µM in the assay on SF-295 CNS, 0.411 µM in the assay with NCI-H460 lung, 3.19 µM in the assay with UACC-257 melanoma and 1.2 µM with U251 CNS. The TGI with CCRF-CEM leukemia was determined as 2.85 µM; in the assay with OVCAR-3 ovarian, 4.06 µM; in the assay with HCT-116 colon it was 1.41 µM; in the assay with SK-MEL-5 melanoma, 3.38 µM; in the assay on PC-3 prostate it was 3.69 µM; in the assay on M14 melanoma, 3.05 µM. Besides, the TGI with SF-295 CNS amounted to 11.5 µM; in the assay on NCI-H460 lung, 1.51 µM; in the assay on UACC-257 melanoma, 9.96 µM; in the assay with U251 CNS, 2.93 µM.

As to `O=S(=O)(CC#CCCCOCC#Cc1ccccc1C#CCS(=O)(=O)c1ccccc1)c1ccccc1`, the GI50 was 3.23 µM in the assay with CCRF-CEM leukemia; 11.6 µM in the assay with OVCAR-3 ovarian; 16.2 µM with HCT-116 colon; 15.3 µM in the assay with SK-MEL-5 melanoma; 20.4 µM with PC-3 prostate; 25.2 µM with M14 melanoma. In addition, the GI50 was 29.8 µM in the assay with SF-295 CNS, 31.2 µM in the assay with NCI-H460 lung, 14.9 µM in the assay with UACC-257 melanoma and 20.5 µM with U251 CNS. Besides, the TGI in the assay with CCRF-CEM leukemia is 10.2 µM; in the assay with OVCAR-3 ovarian it was 30 µM; in the assay on HCT-116 colon, 29.7 µM; with SK-MEL-5 melanoma, 31.8 µM; in the assay with PC-3 prostate, 65.3 µM; in the assay on M14 melanoma it was 56.5 µM. The TGI in the assay on SF-295 CNS was 91.3 µM; with NCI-H460 lung, over 100 µM; with UACC-257 melanoma, 38.9 µM; in the assay with U251 CNS, 41 µM.

As to `OC(COc1cccc2ccccc12)CN1CCN(c2ccc(Cl)cc2)CC1` (configuration not stated), the GI50 was over 100 µM with CCRF-CEM leukemia; 23.8 µM with OVCAR-3 ovarian; 23.4 µM with HCT-116 colon; 55.8 µM in the assay on SK-MEL-5 melanoma; 15.3 µM in the assay on PC-3 prostate; 64.8 µM in the assay on M14 melanoma. The GI50 with SF-295 CNS was 11.4 µM; with NCI-H460 lung, 15.7 µM; in the assay with UACC-257 melanoma it was 42.3 µM; with U251 CNS, 12.6 µM. Moreover, the TGI with CCRF-CEM leukemia is over 100 µM; in the assay with OVCAR-3 ovarian, 69.1 µM; with HCT-116 colon it was over 100 µM; in the assay on SK-MEL-5 melanoma, over 100 µM; with PC-3 prostate it was 46.2 µM; in the assay on M14 melanoma, over 100 µM. Besides, the TGI in the assay with SF-295 CNS was 36.9 µM; in the assay with NCI-H460 lung, over 100 µM; in the assay with UACC-257 melanoma it was over 100 µM; with U251 CNS, 29.9 µM.

As for `FC(F)(F)c1[nH]ncc1-c1nc2c(N3CCCCC3)cc3[nH]ncc3c2c2c1CCCC2`, the GI50 in the assay with CCRF-CEM leukemia is 1.14 µM; in the assay on OVCAR-3 ovarian it was 1.07 µM; with HCT-116 colon, 0.432 µM; in the assay with SK-MEL-5 melanoma, 0.637 µM; in the assay with PC-3 prostate, 0.91 µM; in the assay on M14 melanoma, 0.6 µM. Moreover, the GI50 with SF-295 CNS is 0.857 µM; in the assay with NCI-H460 lung it was 0.49 µM; in the assay with UACC-257 melanoma, 1.09 µM; with U251 CNS it was 0.87 µM. The TGI was over 50 µM in the assay with CCRF-CEM leukemia; 3.14 µM in the assay on OVCAR-3 ovarian; 3.57 µM in the assay with HCT-116 colon; 1.5 µM with SK-MEL-5 melanoma; over 13.8 µM with PC-3 prostate; 1.42 µM in the assay on M14 melanoma. Besides, the TGI in the assay with SF-295 CNS worked out at 3.16 µM; with NCI-H460 lung, 1.9 µM; with UACC-257 melanoma, 3.58 µM; in the assay with U251 CNS it was 5.67 µM.

As to `C[C@@H]1[C@H]2[C@H](C=C3[C@@H]4CC[C@H]5Cc6nc7c(nc6C[C@]5(C)[C@H]4C[C@@H](O)[C@@]32C)C[C@@H]2CC[C@H]3C4=C[C@@H]5O[C@@]6(CC[C@](C)(CO)O6)[C@@H](C)[C@@]5(O)[C@@]4(C)[C@H](O)C[C@@H]3[C@@]2(C)C7)O[C@]12CCC(C)(C)O2`, the GI50 in the assay with CCRF-CEM leukemia is 0.317 µM; in the assay on OVCAR-3 ovarian it was 5.1 µM; in the assay on HCT-116 colon, 0.69 µM; in the assay with SK-MEL-5 melanoma it was 0.783 µM; in the assay with PC-3 prostate, 0.391 µM; with M14 melanoma, 1.22 µM. The GI50 with SF-295 CNS was 0.0698 µM; in the assay with NCI-H460 lung it was 0.466 µM; with UACC-257 melanoma it was 13.9 µM; in the assay on U251 CNS it was 0.2 µM. Besides, the TGI with OVCAR-3 ovarian worked out at 31.8 µM; with HCT-116 colon, 31.2 µM; in the assay on SK-MEL-5 melanoma, 5.2 µM; in the assay on PC-3 prostate, 6.76 µM; with M14 melanoma, 10.5 µM; in the assay with SF-295 CNS, 0.259 µM. In addition, the figures for the TGI with NCI-H460 lung, with UACC-257 melanoma and in the assay on U251 CNS were 4.95 µM, 99.2 µM and 7.06 µM, respectively.
